Data as given in PMC5085131, “Cyclic AMP efflux inhibitors as potential therapeutic agents for leukemia” (Oncotarget, 2016).
Where two headings read alike, the source gives them in different places.

Columns and labels:
VLA-4 = biological target: VLA-4; design: method as in PMID 18534032; details: cited from earlier work
U937 cells [1] = assay: MultiCyt 4-Plex apoptosis assay; assay type: cell-based, human; details: Homo sapiens, U-937, 24 h
Protocol: Apoptosis was determined using MultiCyt® 4-Plex Apoptosis Screening Kit (IntelliCyt, cat. 90053). The kit provides four different apoptosis endpoints that include effector caspases 3 and 7 activation, phosphatidylserine surface expression, mitochondrial membrane depolarization and cell membrane integrity. […] Cell membrane damage is detected by the uptake of a proprietary DNA intercalating agent analogous to 7-aminoactinomycin D.
384-well plates (Greiner 784201), pre-loaded with 5 μL cRPMI were stamped using a pintool with 100 nl of DMSO-solubilized compounds from the 100-fold concentrated stock solution. Next, 5 μL U937 cells (2 × 10^6/ml in cRPMI) were added to wells and mixed, and plates were foil-sealed. Compounds (Table 1) were tested in dose response at final concentrations ranging from 15.2 nM to 100 μM (1% DMSO final). Vehicle (DMSO) was used as a negative control. After 24 h incubation under culture conditions, the IntelliCyt MultiCyt 4-Plex Apoptosis Screening Kit was used according to manufacturer's protocol. The data were acquired using iQue Screener Platform (IntelliCyt). Singlet cell populations were analyzed for individual measures of apoptosis, and gates were set based on control histograms.

697 = assay: CellTiter-Glo cell viability; assay type: cell-based; details: Homo sapiens; overnight, n = 6, ± SEM; read-out: Compound EC50, 697 (cell viability)
Protocol: (§1) Cell viability was determined with the CellTiter-Glo® Luminescent Cell Viability Assay (Promega). Greiner 655083 had 100 μL cRPMI +/− 4×10^4 cells/well, and dose response curves of compounds ranged from 100 μM to 1.53 nM (1% DMSO). Wells with DMSO-only served as negative controls. Samples were incubated overnight, and the assay was completed according to the manufacturer's protocol. Plates were analyzed using a Victor^3V™ 1420 Multilabel Counter (Perkin Elmer).

RS4;11 = assay: CellTiter-Glo cell viability; assay type: cell-based; details: Homo sapiens, overnight, n = 6, ± SEM, read-out: Compound EC50, RS4;11 (cell viability)
Protocol: as §1

Sup B15 = assay: CellTiter-Glo cell viability; assay type: cell-based; details: Homo sapiens, overnight, n = 6, ± SEM, read-out: Compound EC50, Sup B15 (cell viability)
Protocol: as §1

U937 cells [2] = assay: CellTiter-Glo cell viability; assay type: cell-based; details: Homo sapiens, U-937; overnight, n = 8, ± SEM, fit top = 100, bottom = 0, hill slope = −1; read-out: Compound EC50, U937 (cell viability)
Protocol: as §1

normal human PBMCs = assay: CellTiter-Glo cell viability; assay type: cell-based; details: PBMC, overnight, n = 6, ± SEM, read-out: Compound EC50, PBMCs (cell viability)
Protocol: Healthy PBMCs were obtained from volunteers. Mononuclear cells were purified using Mono-Poly resolving medium (MP Biomedicals, cat. 091698049) according to manufacturer's instructions. PBMCs were resuspended in cRPMI and kept on ice prior to use.
as §1

B-ALL cell lines [3] = assay: CellTiter-Glo cell viability, all B-ALL cell lines together; assay type: cell-based, human; details: for EC50: Homo sapiens, mean of converged EC50s of six B-ALL lines, read-out: Compound EC50, Mean B-ALL (cell viability); for Sensitivity of B-ALL lines compared with U937 cells: cell viability, overnight
Protocol: as §1

[4] = test system: primary B-ALL patient samples; assay: CellTiter-Glo cell viability of primary ALL patient samples ex vivo; assay type: cell-based, human; details: for EC50: Homo sapiens
Protocol: Bone marrow samples were acquired at diagnosis from pediatric B-ALL patients. Mononuclear cells were enriched by centrifugation in Ficoll-Paque (GE Healthcare, cat. 17-1440-02) and aliquoted for storage in liquid nitrogen until use. Samples were thawed in a 37°C water bath, resuspended in 20% FBS cRPMI, and centrifuged to remove freezing medium. Cells were resuspended in conditioned medium (DMEM, 10% FBS, 50 U/ml penicillin-streptomycin, 2 mM L-glutamine) from HS-5 stromal cell cultures.
as §1
For primary ALL patient samples, media consisted of 50% cRPMI, 50% conditioned DMEM from HS-5 stromal cell cultures and compounds. Cell densities ranged from 28,000-68,000 cells/well, and plates were foil-sealed prior to incubation.

[5] = design: method as in as printed in each cell; details: previously reported; cited from earlier work
U937 cells [6] = assay: Cell viability by 7-AAD exclusion with or without KH7; assay type: cell-based, human; details: overnight, 6 μM KH7, 7-AAD staining
Protocol: Cells treated with ICE and control samples were incubated with 1 μg/ml of 7-AAD for 20-60 minutes at 4°C on a rotator in the dark, and analyzed by flow cytometry according to manufacturer instructions. Gates were set on 7-AAD negative and positive events based on histograms. Percent of 7-AAD negative events is shown.

U937 cells [7] = assay: F-cAMP efflux assay in U937 cells (screen and dose response); assay type: cell-based, human; details: for Outcome of screen for inhibitors of cAMP efflux after dose-response validation: screen at 10 μM, 51 hits retested in dose-response
Protocol: (§2) Cells were loaded with F-cAMP as described. Briefly, cells were resuspended in a hypertonic solution containing 10% polyethylene glycol 1000, 0.5 M sucrose, and 250 μM F-cAMP in cRPMI without FBS, incubated 10 min at room temperature, washed, and then resuspended in hypotonic solution (60% cRPMI, 40% sterile water) for 2 min at room temperature to complete F-cAMP loading. Cells were resuspended in cRPMI and equilibrated for 2 h under normal culture conditions.
(§3) Samples were evaluated using Accuri C6 or BD FACScan flow cytometers (Becton Dickinson (BD)).
Liquid handling was accomplished with a Biomek FX Multichannel system (Beckman-Coulter, Fullerton, CA, USA) and/or Biotek Multiflo system (Winooski, VT, USA). F-cAMP-loaded U937 cells (2000/well) were seeded into 384-well polypropylene plates (Greiner Bio-One 784201, Monroe, NC, USA). Cells were treated with compounds (10 μM final concentration) from the Prestwick Chemical Library (Illkirch, France) or […] Collection (MicroSource, Gaylordsville, CT, USA) delivered by pintool (V&P Scientific, San Diego, CA), at a final DMSO concentration of 1%. Plates were foil-sealed with AlumaSeal 384™ (Excel Scientific, Victorville, CA, USA), and incubated inverted overnight. Sample plates were analyzed by CyAn flow cytometers (Beckman-Coulter) configured with HyperCyt high-throughput auto-sampler systems (IntelliCyt, Albuquerque, NM, USA) using 488 nm excitation to assess FL-1 (530/40) MFI levels.
Data were analyzed with HyperView software (IntelliCyt) and time-gated to determine data from each well. Wells with ≥ 50 events were evaluated for FL-1 MFI values. Samples with MFI values ≥ 2 standard deviations above the plate mean negative control values were considered “hit” compounds.
To validate sample data and decrease the number of false-positive hits, compounds were assayed in a high-throughput dose response assay. Plates were set up as in the HTS, with the exception that the plate formats contained 10-well dose responses for each hit compound, at final concentrations ranging from 30 μM to 4 nM.
The dose response data were normalized for percent response based on sample FL-1 MFI values in comparison to untreated F-cAMP-loaded cells kept at 4°C overnight or at time = 0, and were fitted by GraphPad Prism 5 software (GraphPad Software, La Jolla, CA, USA) for sigmoidal dose response with constrained hill slope = 1.

Reh = assay: CellTiter-Glo cell viability; assay type: cell-based; details: Homo sapiens, overnight, n = 6, ± SEM, read-out: Compound EC50, Reh (cell viability)
Protocol: as §1

B-ALL cell lines [8] = assay: F-cAMP efflux in B-ALL cell lines with MK-571; assay type: cell-based, human; details: 37°C
Protocol: as §2, §3

[9] = mean of converged EC50s, read-out: Compound EC50, Means (of the apoptosis endpoints)
[10] = n = 4, ± SEM, read-out: Compound EC50, Cell membrane damage
[11] = n = 4, ± SEM, read-out: Compound EC50, Mitochondrial depolarization
[12] = mean of converged EC50s of six patient samples, read-out: Compound EC50 (Sample means), cell viability
[13] = primary B-ALL sample, duplicate, ± SEM, read-out: Compound EC50 (Patient no. 1), cell viability
[14] = primary B-ALL sample, duplicate, ± SEM, read-out: Compound EC50 (Patient no. 2), cell viability
[15] = primary B-ALL sample, duplicate, ± SEM, read-out: Compound EC50 (Patient no. 3), cell viability
[16] = primary B-ALL sample, duplicate, ± SEM, read-out: Compound EC50 (Patient no. 5), cell viability
[17] = primary B-ALL sample, duplicate, ± SEM, read-out: Compound EC50 (Patient no. 6), cell viability

For “4-((N'-2-methylphenyl)ureido)-phenylacetyl-L-leucyl-L-aspartyl-L-valyl-L-prolyl-L-alanyl-L-alanyl-L-lysine-FITC [LDV-FITC]”, the Kd (VLA-4; high affinity state, read-out: Kd for physiologically activated VLA-4) is given as 0.001 to 0.002 µM and the Kd (VLA-4; low affinity state, read-out: Kd for binding to resting VLA-4) is given as roughly 0.012 µM.

`C[C@H]1[C@H](OC(=O)CCC(=O)O)O[C@@H]2O[C@@]3(C)CC[C@H]4[C@H](C)CC[C@@H]1[C@@]24OO3` [Artesunate] gave an EC50 (U937 cells [1]; [9]) of 24.6 µM, an EC50 (U937 cells [1]; n = 4, ± SEM, read-out: Compound EC50, Annexin-V +) of 29.5 ± 1.85 µM and an EC50 (U937 cells [1]; [10]) of 18.6 ± 1.89 µM. The EC50 (U937 cells [1]; [11]) was 25.7 ± 0.82 µM, the EC50 697 was 99.6 ± 27.7 µM and the EC50 (RS4;11) was 33.7 ± 10.6 µM. For the same compound, the EC50 (Sup B15) was 326 ± 88.5 µM, the EC50 (U937 cells [2]) was 7.99 ± 3.24 µM and the EC50 (normal human PBMCs) was 280 ± 91.4 µM. For the same compound, the EC50 (B-ALL cell lines [3]) was 153 µM, the “Sensitivity of B-ALL lines compared with U937 cells” value (B-ALL cell lines [3]) was “decreased sensitivity” and the EC50 [4, 12] was 84.6 µM. It also gave an EC50 [4, 13] of 116 ± 55.2 µM, an EC50 [4, 14] of 115 ± 22.7 µM and an EC50 [4, 15] of 66 ± 27.6 µM. For the same compound, the EC50 [4, 16] was 24.6 ± 12.2 µM, the EC50 [4, 17] was 100 ± 48.7 µM and the Anticancer effects [5] was “↓metastasis/migration [80, 83]; ↓VEGF expression/angiogenesis [70, 76, 80]; ↓cyclins B & D1, Cdks 2, 4, 6[70]; ↑p21, p27 [70]”. The “Potential mechanism(s) of action” value [5] was “↓NFκB & AP-1 activation [83, 130, 131]; ↓nitric oxide, cAMP-mediated, Wnt/β-catenin, PI3K/Akt signaling [81, 130, 131]; ↑ROS [70, 72, 78]”.

Compound `C[C@H]1[C@@H](O)O[C@@H]2O[C@@]3(C)CC[C@H]4[C@H](C)CC[C@@H]1[C@@]24OO3` [Dihydroartemisinin] has an EC50 (U937 cells [1]; [9]) of 16.4 µM, an EC50 (U937 cells [1]; [10]) of 23.7 ± 19.4 µM and an EC50 (U937 cells [1]; [11]) of 9.21 ± 7.52 µM. The EC50 697 was 55.5 ± 16.8 µM, the EC50 (RS4;11) was 26.2 ± 7.94 µM and the EC50 (Sup B15) was 141 ± 49.5 µM. For the same compound, the EC50 (U937 cells [2]) was 1.32 ± 0.58 µM, the EC50 (normal human PBMCs) was 128 ± 34.2 µM and the EC50 (B-ALL cell lines [3]) was 74.4 µM. The “Sensitivity of B-ALL lines compared with U937 cells” value (B-ALL cell lines [3]) was “decreased sensitivity”, the EC50 [4, 12] was 46.6 µM and the EC50 [4, 14] was 47.5 ± 12.2 µM. The EC50 [4, 15] was 83.2 ± 74.2 µM, the EC50 [4, 16] was 11.5 ± 5.02 µM and the EC50 [4, 17] was 44.1 ± 32.2 µM. For the same compound, the “Cell viability vs. vehicle treated sample at lower concentrations” value ([4]; samples from patients no. 1 and no. 5) was “significant increase in cell viability” and the Anticancer effects [5] was “↓VEGF expression & angiogenesis [99, 101, 102]; ↓cyclin B, CDC25 [87]”.

For `CC(Sc1nc2ccccc2[nH]1)C(=O)N/N=C/c1cc(Br)ccc1O` (stereo not shown) [KH7], the “Effect of KH7 on cell viability loss induced by ICE” value (U937 cells [6]) was “significant protective effect”.

For `CN(C)C(=O)CCSC(SCCC(=O)O)c1cccc(/C=C/c2ccc3ccc(Cl)cc3n2)c1` (stereo not shown) [MK-571], the EC50 (U937 cells [7]; Homo sapiens, U-937, read-out: EC50 for cAMP efflux blocking, U937 cells loaded with F-cAMP, overnight, 37°C) was roughly 30 µM, the “Block of loss of F-cAMP probe fluorescence” value (U937 cells [7]; U937 cells, 24 h, 37°C) was “A significant part of this loss was blocked” and the EC50 697 was 126 ± 109 µM. The EC50 (Reh) was 226 ± 93.6 µM, the EC50 (Sup B15) was 144 ± 47.8 µM and the EC50 (U937 cells [2]) was 94.2 ± 35.5 µM. It also gave an EC50 (normal human PBMCs) of 157 ± 66.4 µM, an EC50 (B-ALL cell lines [3]) of 165 µM and an EC50 [4, 12] of 298 µM. For the same compound, the EC50 [4, 13] was 298 ± 140 µM, the “Active F-cAMP efflux in the presence of MK-571” value (B-ALL cell lines [8]; Group 1: Sup-B15 and MHH-Call3, overnight) was “blocked completely” and the “F-cAMP removed with MK-571” value (B-ALL cell lines [8]; Group 2: Reh and RS4;11, overnight, 75-80% without MK-571) was 30-40%. The “F-cAMP removed with MK-571” value (B-ALL cell lines [8]; Group 3: 697 and Nalm-6, overnight, > 90% without MK-571) was 60-70%.

In the case of `C[C@@H]1CC[C@H]2[C@@H](C)C(=O)O[C@@H]3O[C@@]4(C)CC[C@@H]1[C@]32OO4` [artemisinin], the “Outcome of screen for inhibitors of cAMP efflux after dose-response validation” value (U937 cells [7]) is reported as “potentially active”.

In the case of `CC1=NCCc2c1[nH]c1cc(O)ccc21` [harmalol], the “Outcome of screen for inhibitors of cAMP efflux after dose-response validation” value (U937 cells [7]) is reported as “potentially active”.

In the case of `O=C1c2ccc(O)c(O)c2C(=O)c2c(O)ccc(O)c21` [quinalizarin], the “Outcome of screen for inhibitors of cAMP efflux after dose-response validation” value (U937 cells [7]) is reported as “potentially active”.
